Experimental data published in patent publication US20120202840A1, “Use of Flubendazole and Vinca Alkaloids for Treatment of Hematological Diseases” (priority 2009, published 2012).
Read-outs that look alike come from different tables or passages of the source.

Key:
[1] = tested on: Primary AML cell samples; test: Methylcellulose colony forming assay; type: cell-based, human; settings: primary AML samples (n=3), colonies counted 7 days after plating
Procedure: (C) Primary AML cell samples (n=3) were plated in a methylcellulose colony forming assay with increasing concentrations of flubendazole. Colonies were counted 7 days after plating and normalized to cultures treated with buffer alone. Data represent the mean±SD from 3 independent experiments performed in duplicate.
Primary human acute myeloid leukemia (AML) samples were isolated from the peripheral blood of consenting AML patients, who had at least 80% malignant cells among the mononuclear cells in their peripheral blood and cultured at 37° C. in IMDM, 10% fetal calf serum, 100 units/mL of streptomycin and 100 μg/mL of penicillin. The collection and use of human tissue for this study was approved by the local ethics review board (University Health Network, Toronto, ON, Canada).

[2] = tested on: OCI-AML2 cells; test: Radioactive glucose uptake assay; type: cell-based; settings: concentrations up to 4.0 μM, 16 hours
Procedure: (A) OCI-AML2 cells were incubated with increasing concentrations of flubendazole for 16 h and the uptake of 3H-deoxy-D-glucose was measured as in the materials and methods. Data represent the mean±SD glucose uptake. A representative experiment is shown.
The effect of flubendazole on the uptake of 2-deoxy-D-glucose in OCI-AML2 cells was performed using a radioactive glucose uptake assay as described by Wood et al^27. […] Uptake of 2-deoxy-D-glucose was initiated by the addition of 10 μM 2-deoxy-D-glucose and 1 μCi/mL 2-[^3H]deoxy-D-glucose in the HEPES-buffered saline solution at room temperature. After 5 min of incubation, 2-deoxy-D-glucose uptake was terminated by rinsing the cells three times with a 25 mM ice-cold glucose solution, followed by cell disruption with 0.05 N NaOH. Protein concentration was measured by the modified Bradford protein assay and cell-associated radioactivity was determined by scintillation counting. The mean counts per minute are expressed as picomoles/min/mg protein.

[3] = tested on: bovine tubulin; test: Site of binding to tubulin (colchicine-tubulin fluorescence); settings: tubulin 5.0 μM, 100 μM drug 30 min, then colchicine 10 μM 60 min
Procedure: (C) Tubulin (5.0 μM) was incubated for 30 min with 100 μM vinblastine, 100 μM flubendazole, or buffer control. […] A representative figure is shown.
The site of flubendazole binding was determined similar to Gupta et al^19. Bovine tubulin (5.0 μM) was incubated with 100 μM flubendazole, 100 μM vinblastine or buffer control for 30 min at 37° C.

[4] = tested on: A549; test: MTS assay, A549; type: cell-based; settings: Homo sapiens, 3 replicates
Procedure: Next, whether microtubule inhibition was functionally important for flubendazole's cytotoxicity was determined.
(§1) Leukemia (U937, MDAY, CEM, CEM-VBL) and solid tumor cell lines (PPC-1, HeLa) were cultured in RPMI 1640 medium. The epidermoid carcinoma cell lines KB-3-1 and KB-4.0-HTI^23 were grown in Dulbecco's Modified Eagle Medium. The lung carcinoma cell lines A549 and A549.EpoB40 were grown in RPMI with the latter supplemented with 20% fetal calf serum (FCS), and 40 nM epothilone B.^24 Leukemia cell lines OCI-AML2, CEM, and NB4 and all the myeloma cell lines (OPM2, KMS11, JJN3 LP1, H929, L1, KMS12, KSM18 and OCI My5) were maintained in Iscove's Modified Dulbecco's Medium (IMDM). TEX cells were maintained in IMDM, 15% FCS, 1% penicillin-streptomycin, 2 mM L-glutamine, 20 ng/mL SCF, 2 ng/mL IL-3. Unless otherwise noted, all media were supplemented with 10% FCS, 100 units/mL of streptomycin and 100 μg/mL of penicillin (all from Hyclone, Logan, Utah). Cells were incubated in a humidified air atmosphere containing 5% CO2 at 37° C.
Cell growth and viability was measured using the 3-(4,5-dimethylthiazol-2-yl)-5-(3-carboxymethoxyphenyl)-2-(4-sulfophenyl)-2H-tetrazolium inner salt (MTS) reduction assay (Promega, Madison, Wis.) according to the manufacture's protocol and as previously described^25. […] Optical density (OD) was measured at 490 nm.

[5] = tested on: PPC-1 cells; test: Cell cycle analysis (PI, flow cytometry), PPC-1; type: cell-based; settings: PPC-1, 1.0 μM, 24 h
Procedure: OCI-AML2 cells (A) or PPC-1 cells (B) were incubated with 1.0 μM flubendazole or buffer control for 24 h. Cells were then stained with PI and the DNA content was measured by flow cytometry. A representative figure is shown.
Cell cycle analysis was performed as described by Mao et al^31. Briefly, OCI-AML2 or PPC-1 cells were harvested, washed with cold PBS and resuspended in PBS and cold absolute ethanol. Cells were then treated with 100 ng/mL of DNase-free RNase A (Invitrogen, Carlsbad, Calif.) at 37° C. for 30 min, washed with cold PBS, resuspended in PBS and incubated with 50 μg/mL of propidium iodine (PI) for 15 min at room temperature in the dark. DNA content was measured by flow cytometry (FACSCalibur, Becton Dickinson, Florida, USA) and analyzed with FlowJo software version 7.0 (TreeStar, Ashland, Oreg.).

[6] = tested on: CEM; test: MTS cell growth and viability assay, CEM; type: cell-based; settings: Homo sapiens, CCRF-CEM, 3 replicates
Procedure: as §1
Cell growth and viability was measured using the 3-(4,5-dimethylthiazol-2-yl)-5-(3-carboxymethoxyphenyl)-2-(4-sulfophenyl)-2H-tetrazolium inner salt (MTS) reduction assay (Promega, Madison, Wis.) according to the manufacture's protocol and as previously described^25. Cells were seeded in 96 well plates and treated with drug for 72 h. Optical density (OD) was measured at 490 nm.

[7] = rats, mice and guinea-pigs, cited from earlier work
[8] = tested on: PPC-1 cells; test: Mitotic catastrophe (multinucleated cells); type: cell-based; settings: 1.0 μM, 24 h
Procedure: (C) PPC-1 cells were treated as above and stained with anti α-tubulin antibody and DAPI, as described in the materials and methods. Cells were imaged by confocal microscopy and the number of multi-nucleated cells was enumerated. Data represent the mean±SD percent of multinucleated cells from a representative experiment *p<0.0001 (unpaired t test). Insert: a representative multi-nucleated cell.
Mitotic catastrophe was measured by enumerating the number of multinucleated cells similar to the method previously described^26. Briefly, cells (5.0×10^5) were fixed and stained as described below. Fields containing 100 cells per treatment group were selected at random and visualized at 20×. A total of 700 cells were scored per treatment condition. A positive score for mitotic catastrophe was given when two or more distinct nuclear lobes were visualized within a single cell.

## COC(=O)Nc1nc2ccc(C(=O)c3ccc(F)cc3)cc2[nH]1 [flubendazole]
[1]
  clonogenic growth: reduced the clonogenic growth
[2]
  uptake of 3H-deoxy-D-glucose: did not alter glucose uptake
[3]
  colchicine fluorescence (colchicine binding to tubulin): decreased colchicine fluorescence
[4]
  IC50: 4.1 ± 1.3 µM
[5]
  cell cycle: arrested cells in the G2 phase
[6]
  IC50: 1.9 ± 0.9 µM
[7]; intraperitoneal administration
  LD50: > 400 mg/kg
[7]; oral administration
  LD50: > 5000 mg/kg
[8]
  number of multi-nucleated cells: increased the number of multi-nucleated cells
